Experimental data: patent US4923857A, “3-Alkenyl-1-azabicyclo(3.2.0)hept-2-ene-2-carboxylic acid compounds” (Fujisawa Pharmaceutical Company, Ltd., priority 1988, dated 1990)

Tested on: S. aureus 209P JC-1
Assay: in vitro Antimicrobial Activity, two-fold agar-plate dilution method (MIC)
Assay type: cell-based
Conditions: Staphylococcus aureus, HI-agar, 37° C., 20 hours, 10^6 viable cells per ml, read-out: MIC (minimal inhibitory concentration)
Method: in vitro Antimicrobial Activity was determined by the two-fold agar-plate dilution method as described below.
One loopful of an overnight culture of a test strain in Trypticase-soy broth (10^6 viable cells per ml) was streaked on heart infusion agar (HI-agar) containing graded concentrations of the test compound, and the minimal inhibitory concentration (MIC) was expressed in terms of […] after incubation at 37° C. for 20 hours.

- MIC: ≤ 0.025 mg/L
Compound: C/C(=C\[C@@H]1CCCN1)C1=C(C(=O)O)N2C(=O)[C@H]([C@@H](C)O)[C@H]2C1 [Example 4-(1), (5R,6S)-6-[(1R)-1-hydroxyethyl]-7-oxo-3-[(E)-2-{(2S)-pyrrolidin-2-yl}-1-methylethenyl]-1-azabicyclo [3.2.0]hept-2-ene-2-carboxylic acid]
